Tests used:
gephE = experiment: µSPOT peptide microarray binding assay with recombinant gephE
native geph = experiment: µSPOT peptide microarray binding assay with native geph from mouse brain lysate
FL-geph = experiment: µSPOT peptide microarray binding assay with full-length geph
[1] = µSPOT full positional scan of GlyRβ 15-mer DLRSNDFSIVGSLPR, intensity normalised to wild-type sequence (= 1)
[2] = µSPOT full positional scan of GlyRβ 15-mer DLRSNDFSIVGSLPR, native geph, intensity normalised to wild-type sequence (= 1)
[3] = µSPOT peptide microarray, GlyRβ full positional scan, recombinant gephE, intensity normalised to wild-type sequence DLRSNDFSIVGSLPR (=1)
[4] = µSPOT peptide microarray, GlyRβ full positional scan, native geph from mouse brain lysate, intensity normalised to wild-type sequence DLRSNDFSIVGSLPR (=1)
[5] = µSPOT peptide microarray, GlyRβ full positional scan, intensity normalised to wild-type sequence DLRSNDFSIVGSLPR (=1)

Sequence	gephE Binding Intensity [norm.] (gephE; [1])	Native geph Binding Intensity [norm.] (native geph; [2])	Fl-geph Binding Intensity [norm.] (FL-geph; [1])	gephE Binding Intensity [norm.] (gephE; [3])	Native geph Binding Intensity [norm.] (native geph; [4])	Fl-geph Binding Intensity [norm.] (FL-geph; [5])
DLRSNDFSIVGSYPR [GlyRβ_Full_Positional_Scan_249]	0.99 norm.	1.23 norm.	0.87 norm.			
DLRSNDCSIVGSLPR [GlyRβ_Full_Positional_Scan_137, GlyR β 414-428 variant F420C]				0.67 norm.	0.53 norm.	0.63 norm.
DLRSNGFSIVGSLPR [GlyRβ_Full_Positional_Scan_102]				1 norm.	0.65 norm.	1.07 norm.
DVRSNDFSIVGSLPR [GlyRβ_Full_Positional_Scan_026]				1.03 norm.	0.98 norm.	1.05 norm.
DLWSNDFSIVGSLPR [GlyRβ_Full_Positional_Scan_048]				0.86 norm.	1.17 norm.	1.13 norm.
DLRSNNFSIVGSLPR [GlyRβ_Full_Positional_Scan_119]				0.89 norm.	0.57 norm.	0.69 norm.
DLRSNDFSIVGSLPV [GlyRβ_Full_Positional_Scan_286]	1.06 norm.	0.96 norm.	0.97 norm.			
DLRSNSFSIVGSLPR [GlyRβ_Full_Positional_Scan_115]				0.89 norm.	0.75 norm.	0.92 norm.
DLRSNYFSIVGSLPR [GlyRβ_Full_Positional_Scan_109]				0.82 norm.	0.38 norm.	0.7 norm.
DLRSNDKSIVGSLPR [GlyRβ_Full_Positional_Scan_134, GlyR β 414-428 variant F420K]				0.53 norm.	0.3 norm.	0.61 norm.
DLRSNDFSIVGSWPR [GlyRβ_Full_Positional_Scan_248]	0.7 norm.	0.52 norm.	0.93 norm.			
DHRSNDFSIVGSLPR [GlyRβ_Full_Positional_Scan_033]				0.91 norm.	0.98 norm.	0.95 norm.
DLRSNDFSIVGWLPR [GlyRβ_Full_Positional_Scan_228]	0.57 norm.	0.19 norm.	0.67 norm.			
DLFSNDFSIVGSLPR [GlyRβ_Full_Positional_Scan_047]				0.89 norm.	1.18 norm.	1.29 norm.
DLRSNDFDIVGSLPR [GlyRβ_Full_Positional_Scan_150, GlyR β 414-428 variant S421D]				0.53 norm.	0.29 norm.	0.9 norm.
DLRSNDFSIVKSLPR [GlyRβ_Full_Positional_Scan_214, GlyR β 414-428 variant G424K]	0.5 norm.	0.17 norm.	0.44 norm.			
DLRSNDFSIVGSTPR [GlyRβ_Full_Positional_Scan_256]	0.86 norm.	0.89 norm.	1.14 norm.			
DLRSNDFSIVGSLPG [GlyRβ_Full_Positional_Scan_282]	0.88 norm.	0.84 norm.	0.92 norm.			
DLRSNDFSIVGSLPA [GlyRβ_Full_Positional_Scan_281]	0.87 norm.	0.81 norm.	0.9 norm.			
DLRSNDFSIVGSLKR [GlyRβ_Full_Positional_Scan_274]	0.58 norm.	0.21 norm.	1.01 norm.			
DLRRNDFSIVGSLPR [GlyRβ_Full_Positional_Scan_072]				0.97 norm.	1.25 norm.	1.06 norm.
DLRQNDFSIVGSLPR [GlyRβ_Full_Positional_Scan_080]				0.89 norm.	1.04 norm.	0.98 norm.
